# Patent US4454156A, “4-Amino-hepta-5,6-dienoic acid” (Merrell-Toraude et Compagnie, priority 1982, dated 1984)
# Several values for one entry are separate records, joined by “and”; a condition that tells them apart may be missing. Equal values may be shown once. Read-outs that look alike come from different tables or passages of the source.
# How the values were obtained:
# GABA-T [1] = assay: GABA-T activity in mouse brain after seven daily i.p. doses; format: in vivo, mice (male albino CD1); conditions: 24 h after last dose
# Protocol: (§1) Male albino CD1 mice each weighing approximately 34 g at commencement of the test are given an i.p. injection of the test compound in aqueous solution daily for seven consecutive days. Half of the animals are killed by decapitation 24 hours after the last dose fo the test compound. The other half of the animals are observed for up to 12 days for toxicity (as indicated by weight loss and deaths). Control animals receive an injecion of the vehicle only.
# (§2) The brains are removed from the dead mice and are divided into two portions by sagittal section. One half is used for the measurement of GABA-T activity while the other is used for measuring GABA content. The GABA-T activity is measured using known methods as described by M. Jung et al., J.Neurochem., 28, 717 (1977) and 29, 797 (1977). GABA content is measured by perchloric acid or trichloroacetic acid extracts using an amino acid analyzer equiped with a fluorescence detector.
# GABA levels in the brain [2] = assay: GABA content of mouse brain after seven daily i.p. doses; format: in vivo, mice (male albino CD1); conditions: 24 h after last dose
# Protocol: as §1, §2
# GABA-T [3] = assay: GABA-T activity in mouse brain after a single i.p. or oral dose; format: in vivo, mice; conditions: for GABA-T Activity (calculated as percent inhibition): 6 h
# Protocol: as §1, §2
# A. The procedure of Example 3 is repeated using a single i.p. dose of the test compound and killing the mice 6 hours after the i.p. injection.
# (§3) B. The procedure of Part A is repeated using both oral and i.p. doses of (R,S)-allenyl GABA.
# GABA levels in the brain [4] = assay: GABA level in mouse brain after a single i.p. or oral dose; format: in vivo, mice; conditions: for elevation of GABA levels in the CNS: administered orally or parenterally; for GABA Level (calculated as percent of control): 6 h; for effectiveness by oral versus i.p. route: oral vs i.p.
# Protocol: […] […] The other half of the animals are observed for up to 12 days for toxicity (as indicated by weight loss and deaths). Control animals receive an injecion of the vehicle only.
# as §2, with “The GABA-T activity is measured using known methods as described by M. Jung et al., J.Neurochem., 28, 717 (1977) and 29, 797 (1977).” left out
# as §3
# [5] = Toxicity (lethality) after i.p. or oral administration to mice
# Protocol: A. The toxicity of (S)-allenyl GABA and (R,S)-allenyl GABA was determined after i.p. administration to male mice. The mice were observed up to eight days after injection.
# B. The toxicity of (S)-allenyl GABA ("S") and (R,S)-allenyl GABA ("R,S") was determined as in Part A after both oral and i.p. administration.
# [6] = test system: seizures and death induced by mercaptopropionic acid; assay: Protection of mice against seizures and death induced by mercaptopropionic acid; format: in vivo; conditions: for Number of Animals having seizures / Number of Dead animals: 6 h before mercaptopropionic acid 53 mg/kg i.p.
# Excerpt: Mice (3.5) were given a single i.p. injection of the test compound. […] The results of the testing are set forth below
# GABA-T [7] = conditions: known compounds, literature; cited from earlier work
# brain levels of GABA = conditions: known compounds, literature; cited from earlier work
# GABA-T [8] = assay: Biochemical tests for irreversible inhibition of GABA-T; conditions: biochemical / biological tests
# [9] = 100 mg/kg i.p. daily for 7 days
# [10] = i.p., 0.77 mM/kg (135.9 mg/kg), single dose, Table 3
# [11] = i.p., 1.94 mM/kg (342.4 mg/kg), single dose, Table 3
# [12] = i.p., 3.87 mM/kg (683.1 mg/kg), single dose, Table 3
# [13] = oral, 0.77 mM/kg (135.9 mg/kg), single dose, Table 3
# [14] = oral, 1.94 mM/kg (342.4 mg/kg), single dose, Table 3
# [15] = oral, 3.87 mM/kg (683.1 mg/kg), single dose, Table 3
# [16] = single i.p. dose 1.55 mM/kg (273.5 mg/kg), Table 2
# [17] = single i.p. dose 3.10 mM/kg (547.2 mg/kg), Table 2
# [18] = single i.p. dose 6.2 mM/kg (1094.3 mg/kg), Table 2
# [19] = mercaptopropionic acid model, mice
# [20] = single i.p. dose 0.77 mM/kg (135.9 mg/kg), Table 2
smiles,measurement,setting,value
"C=C=CC(N)CCC(=O)O (racemic) [(R,S)-allenyl GABA, (R,S)-4-amino-hepta-5,6-dienoic acid]",GABA-T Activity (calculated as percent inhibition),GABA-T [1]; 50 mg/kg i.p. daily for 7 days,55 percent inhibition
same,GABA-T Activity (calculated as percent inhibition),GABA-T [1]; [9],74 percent inhibition
same,GABA Level (calculated as percent of control),GABA levels in the brain [2]; 50 mg/kg i.p. daily for 7 days,130% of control
same,GABA Level (calculated as percent of control),GABA levels in the brain [2]; [9],180% of control
same,GABA-T Activity (calculated as percent inhibition),GABA-T [3]; [10],64 percent inhibition
same,GABA-T Activity (calculated as percent inhibition),GABA-T [3]; [11],84 percent inhibition
same,GABA-T Activity (calculated as percent inhibition),GABA-T [3]; [12],88 percent inhibition
same,irreversible inhibition of GABA-T in vivo,GABA-T [3],produce irreversible inhibition of GABA-T
same,GABA-T Activity (calculated as percent inhibition),GABA-T [3]; [13],69 percent inhibition
same,GABA-T Activity (calculated as percent inhibition),GABA-T [3]; [14],81 percent inhibition
same,GABA-T Activity (calculated as percent inhibition),GABA-T [3]; [15],86 percent inhibition
same,GABA-T Activity (calculated as percent inhibition),GABA-T [3]; [16],76 percent inhibition
same,GABA-T Activity (calculated as percent inhibition),GABA-T [3]; [17],89 percent inhibition
same,GABA-T Activity (calculated as percent inhibition),GABA-T [3]; [18],96 percent inhibition
same,elevation of GABA levels in the CNS,GABA levels in the brain [4],can elevate GABA levels significantly in the CNS
same,GABA Level (calculated as percent of control),GABA levels in the brain [4]; [10],310% of control
same,GABA Level (calculated as percent of control),GABA levels in the brain [4]; [11],490% of control
same,GABA Level (calculated as percent of control),GABA levels in the brain [4]; [12],600% of control
same,effectiveness by oral versus i.p. route,GABA levels in the brain [4]; Table 3,equally effective when given by the oral and i.p. routes of administration
same,GABA Level (calculated as percent of control),GABA levels in the brain [4]; [13],330% of control
same,GABA Level (calculated as percent of control),GABA levels in the brain [4]; [14],434% of control
same,GABA Level (calculated as percent of control),GABA levels in the brain [4]; [15],530% of control
same,GABA Level (calculated as percent of control),GABA levels in the brain [4]; [16],470% of control
same,GABA Level (calculated as percent of control),GABA levels in the brain [4]; [17],530% of control
same,GABA Level (calculated as percent of control),GABA levels in the brain [4]; [18],770% of control
same,selectivity ratio,"[5]; mouse, in vivo, ip",4 to 5
same,No. of dead animals,"[5]; mouse, in vivo, ip, 500 mg/kg",0/5
same,No. of dead animals Day 4,"[5]; mouse, in vivo, ip, 500 mg/kg",0/5
same,No. of dead animals,"[5]; mouse, in vivo, ip, 750 mg/kg",3/5
same,No. of dead animals Day 4,"[5]; mouse, in vivo, ip, 750 mg/kg",3/5
same,No. of dead animals,"[5]; mouse, in vivo, ip, 1000 mg/kg",2/5 and 4/5 and 5/5
same,No. of dead animals Day 4,"[5]; mouse, in vivo, ip, 1000 mg/kg",5/5
same,No. of dead animals,"[5]; mouse, in vivo, ip, 1500 mg/kg",5/5
same,No. of dead animals Day 4,"[5]; mouse, in vivo, ip, 1500 mg/kg",5/5
same,No. of dead animals Day 4,"[5]; mouse, in vivo, po, 500 mg/kg",0/5
same,No. of dead animals Day 4,"[5]; mouse, in vivo, po, 750 mg/kg",0/5
same,No. of dead animals Day 4,"[5]; mouse, in vivo, po, 1000 mg/kg",0/5
same,No. of dead animals Day 4,"[5]; mouse, in vivo, po, 1500 mg/kg",0/5
same,toxicity by oral administration,[5]; oral,did not show toxicity by the oral route up to a dose of 1500 mg/kg
same,Number of Animals having seizures,[6]; 0.39 mMole/kg i.p.,5/5
same,Number of Dead animals,[6]; 0.39 mMole/kg i.p.,3/5
same,Number of Animals having seizures,[6]; 0.77 mMole/kg i.p.,5/5
same,Number of Dead animals,[6]; 0.77 mMole/kg i.p.,2/5
same,Number of Animals having seizures,[6]; 1.9 mMole/kg i.p.,3/5
same,Number of Dead animals,[6]; 1.9 mMole/kg i.p.,0/5
same,Number of Animals having seizures,[6]; 3.9 mMole/kg i.p.,3/5
same,Number of Dead animals,[6]; 3.9 mMole/kg i.p.,0/5
same,effect on number of dead animals,[6]; [19],significantly reduces the number of dead animals
same,protection against seizures,[6]; [19],does not protect totally against seizures
"C#CC(N)CCCN (centres unmarked) [1-acetylene-1,4-butanediamine]",irreversible inhibition of GABA-T,GABA-T [7],irreversible inhibitors of GABA-T
same,elevation of brain levels of GABA,brain levels of GABA,elevate brain levels of GABA
"C=CC(N)CCC(=O)O (centres unmarked) [4-aminohex-5-enoic acid (""vinyl GABA""), 4-aminohex-5-enoic acid]",irreversible inhibition of GABA-T,GABA-T [7],irreversible inhibitors of GABA-T
same,elevation of brain levels of GABA,brain levels of GABA,elevate brain levels of GABA
C#CC(N)CCC(=O)O (centres unmarked) [4-aminohex-5-ynoic acid],irreversible inhibition of GABA-T,GABA-T [7],irreversible inhibitors of GABA-T
same,elevation of brain levels of GABA,brain levels of GABA,elevate brain levels of GABA
C=C=C[C@H](N)CCC(=O)O [(R)-allenyl GABA],irreversible inhibition of GABA-T,GABA-T [8],not an irreversible inhibitor of GABA-T
same,irreversible inhibition of GABA-T,GABA-T [8]; listed as (R)(-)-isomer,not active
"C=C=C[C@@H](N)CCC(=O)O [(S)-allenyl GABA, (S)-4-amino-hepta-5,6-dienoic acid]",irreversible inhibition of GABA-T in vivo,GABA-T [3],produce irreversible inhibition of GABA-T
same,GABA-T Activity (calculated as percent inhibition),GABA-T [3]; [20],79 percent inhibition
same,GABA-T Activity (calculated as percent inhibition),GABA-T [3]; [16],92 percent inhibition
same,GABA-T Activity (calculated as percent inhibition),GABA-T [3]; [17],96 percent inhibition
same,relative potency for the elevation of GABA levels,"GABA levels in the brain [4]; (S) versus (R,S), single i.p. dose, Table 2","twice the potency of (R,S)-allenyl GABA"
same,elevation of GABA levels in the CNS,GABA levels in the brain [4],can elevate GABA levels significantly in the CNS
same,effectiveness by oral versus i.p. route,GABA levels in the brain [4]; Table 3,equally effective when given by the oral and i.p. routes of administration
same,GABA Level (calculated as percent of control),GABA levels in the brain [4]; [20],540% of control
same,GABA Level (calculated as percent of control),GABA levels in the brain [4]; [16],670% of control
same,GABA Level (calculated as percent of control),GABA levels in the brain [4]; [17],730% of control
same,No. of dead animals,"[5]; i.p., 250 mg/kg, Day 1",0/5
same,No. of dead animals,"[5]; i.p., 250 mg/kg, Day 2",0/5
same,No. of dead animals,"[5]; i.p., 250 mg/kg, Day 3",0/5
same,No. of dead animals,"[5]; i.p., 250 mg/kg, Day 4",0/5
same,No. of dead animals,"[5]; i.p., 250 mg/kg, Day 8",0/5
same,No. of dead animals,"[5]; i.p., 375 mg/kg, Day 1",0/5
same,No. of dead animals,"[5]; i.p., 375 mg/kg, Day 2",0/5
same,No. of dead animals,"[5]; i.p., 375 mg/kg, Day 3",0/5
same,No. of dead animals,"[5]; i.p., 375 mg/kg, Day 4",0/5
same,No. of dead animals,"[5]; i.p., 375 mg/kg, Day 8",0/5
same,No. of dead animals,"[5]; i.p., 500 mg/kg, Day 1",0/5
same,No. of dead animals,"[5]; i.p., 500 mg/kg, Day 2",0/5
same,No. of dead animals,"[5]; i.p., 500 mg/kg, Day 3",0/5
same,No. of dead animals,"[5]; i.p., 500 mg/kg, Day 4",0/5
same,No. of dead animals,"[5]; i.p., 500 mg/kg, Day 8",0/5
same,No. of dead animals,"[5]; i.p., 750 mg/kg, Day 1",0/5
same,No. of dead animals,"[5]; i.p., 750 mg/kg, Day 2",0/5
same,No. of dead animals,"[5]; i.p., 750 mg/kg, Day 3",0/5
same,No. of dead animals,"[5]; i.p., 750 mg/kg, Day 4",0/5
same,No. of dead animals,"[5]; i.p., 750 mg/kg, Day 8",0/5
same,toxicity after i.p. administration,"[5]; i.p., very large doses corresponding to maximal biological effects",non-toxic after i.p. administration of very large doses
same,toxicity by oral administration,[5]; oral,non-toxic by oral administration
same,No. of dead animals Day 4,"[5]; oral, 500 mg/kg, Day 4, Example 5 Part B",0/5
same,No. of dead animals Day 4,"[5]; oral, 750 mg/kg, Day 4, Example 5 Part B",1/5
same,irreversible inhibition of GABA-T,GABA-T [8],irreversible inhibitor of GABA-T
